Data taken from US20080267936A1, “Treatment of trauma-hemorrhage with short oligopeptides” (Biotempt B.V., priority 2007, published 2008).

Assays:
IL-6 [1] = experiment: Hemorrhagic shock model, Example 2: IL-6 plasma levels by ELISA; format: in vivo, Wistar rats; settings: 10 mg/kg single dose; 120, 150 and 180 minutes after onset of shock
Description: (§1) Adult male specific pathogen-free Wistar rats (Harlan CPB, Zeist, The Netherlands), weighing 350 to 400 g were used. Animals were housed under barrier conditions at 25° C. with a twelve-hour light/dark cycle, and were allowed food and water ad libitum. The experimental protocol was approved by the Animal Experiment Committee under the Dutch Experiments on Animals Act and adhered to the rules laid down in this national law that serves the implementation of “Guidelines on the protection of experimental animals” by the Council of Europe (1986), Directive 86/609/EC.
(§2) Synthetic oligopeptides: The oligopeptides (LQGV (SEQ ID NO:2), AQGV (SEQ ID NO:1), and LAGV (SEQ ID NO:3)) were synthesized by Ansynth Service B.V. (Roosendaal, The Netherlands) and dissolved in 0.9% NaCl at a concentration of 10 mg/ml.
Surgical procedures: Rats were food deprived overnight before the experiment, but were allowed water ad libitum. Rats were anesthetized using a mixture of N2O/O2 isoflurane (Pharmachemie B.V., Haarlem, The Netherlands). […]
Experimental procedures: After an acclimatization period of 15 minutes, the rats were randomized into five different groups: 1) sham, 2) hemorrhagic shock (HS), 3) hemorrhagic shock with LQGV (SEQ ID NO:2) treatment (HS/LQGV (SEQ ID NO:2)), 4) hemorrhagic shock with AQGV treatment (HS/AQGV (SEQ ID NO:1)) and 5) hemorrhagic shock with LAGV (SEQ ID NO:3) treatment (HS/LAGV (SEQ ID NO:3). […] Sixty minutes after induction of hemorrhagic shock, rats were resuscitated by autologous blood transfusion over a period of 30 minutes and monitored for another 120 minutes, after which they were sacrificed (FIG. 7, Panel A). […]
Plasma collection and storage: Arterial blood was obtained 15 minutes before and 30, 60, 90, 120, 150 and 180 minutes after onset of hemorrhage (FIG. 7, Panel A). After blood withdrawal, leukocyte numbers were determined using a coulter counter (Beckman Coulter, Mijdrecht, The Netherlands) and corrected for the hematocrit. […]

TNF-α [2] = experiment: Hemorrhagic shock model, Example 2: TNF-α plasma levels by ELISA; format: in vivo, Wistar rats; settings: for increase in plasma TNF-α levels during the experiment: 10 mg/kg single bolus 30 minutes after onset of shock, up to 180 minutes; for TNF-α plasma levels: 10 mg/kg single dose after induction of hemorrhagic shock, vs non-treated HS
Description: as §1, §2
Surgical procedures: Rats were food deprived overnight before the experiment, but were allowed water ad libitum. Rats were anesthetized using a mixture of N2O/O2 isoflurane (Pharmachemie B.V., Haarlem, The Netherlands). Body temperature was continuously maintained at 37.5° C. by placing the rats on a thermo controlled “half-pipe” (UNO, Rotterdam, The Netherlands). Endotracheal intubation was performed, and rats were ventilated at 60 breaths per minute with a mixture of N2O/O2 2% isoflurane. Polyethylene tubes (PE-50, Becton Dickinson; St. Michielsgestel, The Netherlands) were flushed with heparin and placed via the right carotid artery in the aorta and in the right internal jugular vein. The rats received no heparin before or during the experiment.
(§3) Experimental procedures: After an acclimatization period of 15 minutes, the rats were randomized into five different groups: 1) sham, 2) hemorrhagic shock (HS), 3) hemorrhagic shock with LQGV (SEQ ID NO:2) treatment (HS/LQGV (SEQ ID NO:2)), 4) hemorrhagic shock with AQGV treatment (HS/AQGV (SEQ ID NO:1)) and 5) hemorrhagic shock with LAGV (SEQ ID NO:3) treatment (HS/LAGV (SEQ ID NO:3). Hemorrhagic shock was induced by blood withdrawal, reducing the circulating blood volume until a mean arterial pressure (MAP) of […] mmHg was reached. This level of hypotension was maintained for 60 minutes. After 30 minutes, rats received either a single bolus injection of 10 mg/kg LQGV (SEQ ID NO:2), AQGV (SEQ ID NO:1), LAGV (SEQ ID NO:3), or 0.9% NaCl solution. The peptides and dosage were based on previous studies, in which we performed dose-escalation experiments (manuscript in preparation). Sixty minutes after induction of hemorrhagic shock, rats were resuscitated by autologous blood transfusion over a period of 30 minutes and monitored for another 120 minutes, after which they were sacrificed (FIG. 7, Panel A). Sham animals underwent the same surgical procedure as the hemorrhagic shock animals, but without performing hemorrhage and administration of peptides.
Plasma collection and storage: Arterial blood was obtained 15 minutes before and 30, 60, 90, 120, 150 and 180 minutes after onset of hemorrhage (FIG. 7, Panel A). After blood withdrawal, leukocyte numbers were determined using a coulter counter (Beckman Coulter, Mijdrecht, The Netherlands) and corrected for the hematocrit. Approximately 0.3 ml of blood was placed into mini collect tubes (Greiner, Bio-one, Alphen a/d Rijn, The Netherlands), plasma was obtained by centrifugation (1500 r.p.m.; five minutes), immediately frozen, and stored at −80° C., until assayed.
Measurement of cytokines: TNF-α and IL-6 plasma levels were determined by ELISA (R&D Systems Europe Ltd., Abingdon, UK), according to the manufacturer's instructions.
(§4) Statistical analysis: Statistical analysis was performed using SPSS version 11 software (SPSS Inc., Chicago, Ill.). Inter-group differences were analyzed with Kruskal-Wallis statistical test.

ICAM-1 = experiment: Hemorrhagic shock model, Example 2: ICAM-1 mRNA transcripts in tissue by RQ-PCR; format: in vivo, Wistar rats; settings: 180 minutes after onset of shock, 10 mg/kg, normalized against GAPDH
Description: as §3
(§5) Tissue collection and storage: Liver, lungs, ileum and sigmoid were surgically removed at the end of the experiment, snap-frozen, and stored at −80° C., until assayed.
(§6) Evaluation of mRNA levels by real-time quantitative (RQ)-PCR: RNA was isolated using a QIAGEN kit (QIAGEN, Hilden, Germany), according to the manufacturer's instructions. TNF-α, IL-6 and ICAM-1 transcripts were determined by RQ-PCR using an Applied Biosystems 7700 PCR machine (Foster City, Calif., USA) as described previously.^[27] TNF-α, IL-6 and ICAM-1 expression was quantified by normalization against GAPDH.
as §4

IL-6 [3] = experiment: Hemorrhagic shock model, Example 2: IL-6 mRNA transcripts in tissue by RQ-PCR; format: in vivo, Wistar rats; settings: 180 minutes after onset of shock, 10 mg/kg, normalized against GAPDH
Description: as §3, §5, §6, §4

hemorrhagic shock = experiment: Hemorrhagic shock model, Example 1 (bled to MAP 40 mmHg, 0.9% NaCl resuscitation): blood cells, hematocrit, hepatic blood flow; format: in vivo, Wistar rats; settings: for leukocyte concentration, peptide-treated vs non-treated animals: 5 mg/kg i.v. 30 minutes after induction of shock; for leukocytes, minimum during trauma-hemorrhage: 100% at T0, 5 mg/kg i.v. single bolus 30 minutes after induction of shock; for arterial hepatic blood flow during the shock period: control group 102.6±23.5%; for concentrations of circulating macrophages and granulocytes compared to the non-treated animals: 120 minutes after the onset of hemorrhagic shock, single dose; for blood levels of circulating macrophages and granulocytes / concentrations of circulating macrophages and granulocytes compared with the corresponding experimental group / decrease of circulating macrophages and granulocytes compared with concentrations after trauma-hemorrhage: 180 minutes after onset of trauma-hemorrhage
Description: Adult male specific pathogen-free Wistar rats (Harlan CPB, Zeist, The Netherlands), weighing 350 to 400 g were used after a minimum seven-day acclimation period. The animals were housed under barrier conditions and kept at 25° C. with a twelve-hour light/dark cycle. Rats were allowed free access to water and chow (−). All procedures were performed in accordance with the Principles of Laboratory Animal Care (NIH publication No. 86-23, revised 1985) under a protocol approved by the Committee on Animal Research of the Erasmus University (protocol EUR 365).
The rats were fasted overnight but were allowed free access to water before the experiment. Subsequent to endotracheal intubation, the rats were mechanically ventilated with an isoflurane (−) N2O/O2 mixture at 60 breaths/minute. Body temperature was continuously maintained at 37.5° C. by placing the animals on a thermo controlled “half-pipe” (UNO, The Netherlands). Polyethylene tubes (PE-50, Becton Dickinson; St. Michielsgestel, The Netherlands) were flushed with heparin and placed via the right carotid artery in the aorta and in the right internal jugular vein. The animals received no heparin before or during the experiment.
Mean arterial pressures (MAP) was measured using transducers (Becton Dickinson) that were connected in line to an electronic recorder (Hewlett Packard, 78354-A Germany) for electronically calculated mean pressures and continuous measurement of the animal's blood pressure. Under semi-sterile conditions, a median laparotomy was performed and ultrasonic perivascular flow probes (Transonic Systems Inc, Maastricht, The Netherlands) were placed on the common hepatic artery and the portal vein. A supra pubic catheter was placed to monitor the urine production during and after resuscitation.
After an acclimatization period of 20 minutes, the rats were randomized into the following five groups: • Hemorrhagic shock group were bled within ten minutes to a mean arterial pressure (MAP) of 40 mmHg and maintained at this level for 60 minutes by withdrawing or re-infusing shed blood as needed. Thereafter, the animals were resuscitated with plus minus four times the volume of the withdrawn blood over 30 minutes with a 0.9% NaCl solution. • The hemorrhagic shock group+peptide A (LAGV (SEQ ID NO:3); one-letter amino acid code) underwent the same procedure as the hemorrhagic shock group but received a single bolus injection of 5 mg/kg peptide A intravenously 30 minutes after the induction of shock. • The hemorrhagic shock group+peptide B (AQGV (SEQ ID NO:1)) underwent the same procedure as the hemorrhagic shock group and received a single bolus injection of 5 mg/kg peptide B intravenously, 30 minutes after the induction of shock. • The hemorrhagic shock group+peptide C (LQGV (SEQ ID NO:2)) underwent the same procedure as the hemorrhagic shock group and received a single bolus injection of 5 mg/kg peptide C intravenously, 30 minutes after the induction of shock. • Sham group underwent the same procedure as the hemorrhagic shock group without performing the hemorrhage or administration of any kind of peptides.
The hepatic arterial blood flow (QHA) and hepatic portal venous blood flow (QVP) were measured with transit time ultrasonic perivascular flow probes, connected to an ultrasonic meter (T201; Transonic Systems, Inc., Maastricht, NL). Systemic and hepatic hemodynamics were continuously measured. At regular time points, arterial blood samples were taken. The animals were euthanized by withdrawal of arterial blood via the carotid artery.
Plasma collection and storage: Whole arterial blood was obtained at −15, 30, 60, 90, 120, 150 and 180 minutes after induction of shock via the right carotid artery and collected in duplo. 0.2 ml was placed in tubes (Eppendorf EDTA KE/1.3) to be assayed in the coulter counter (−). 0.5 ml was placed in Minicollect tubes (Bio-one, Greiner) centrifuged for five minutes, immediately frozen, and stored at −80° C., until assayed. […]

TNF-α [4] = experiment: Hemorrhagic shock model, Example 2: TNF-α mRNA transcripts in tissue by RQ-PCR; format: in vivo, Wistar rats; settings: 180 minutes after onset of shock, 10 mg/kg, normalized against GAPDH
Description: as §3, §5, §6, §4

[5] = tested on: pro-inflammatory cytokines; settings: 150 mg/kg; cited from earlier work

Substance | IL-6 plasma levels compared to the non-treated hemorrhagic shock group (IL-6 [1]) | increase in plasma TNF-α levels during the experiment (TNF-α [2]) | TNF-α plasma levels (TNF-α [2]) | ICAM-1 transcript levels in the liver (ICAM-1) | IL-6 mRNA transcripts in the liver compared to the HS group (IL-6 [3]) | leukocyte concentration, peptide-treated vs non-treated animals (hemorrhagic shock) | leukocytes, minimum during trauma-hemorrhage (hemorrhagic shock) [%] | arterial hepatic blood flow during the shock period (hemorrhagic shock; 5 mg/kg i.v.) [%] | TNF-α transcripts in the liver compared to non-treated HS (TNF-α [4]) | concentrations of circulating macrophages and granulocytes compared to the non-treated animals (hemorrhagic shock) | blood levels of circulating macrophages and granulocytes (hemorrhagic shock; 5 mg/kg i.v.) | concentrations of circulating macrophages and granulocytes compared with the corresponding experimental group (hemorrhagic shock; 5 mg/kg i.v.) | decrease of circulating macrophages and granulocytes compared with concentrations after trauma-hemorrhage (hemorrhagic shock; 5 mg/kg i.v.) [%] | blood flow in the hepatic artery during the reperfusion (hemorrhagic shock; reperfusion, 5 mg/kg i.v., shock group 128.9±75.4%, control 83.7±24.2%) [%] | mRNA expression of pro-inflammatory cytokines in the liver after hemorrhagic shock [5]
LAGV [synthetic tetrapeptide, alanine replacement variant of LQGV from loop two of the β-subunit of hCG] | significant reduction | none | significant reduction | did not affect | reduction | No significant difference | 42.0±8.7 | 21.3±9.1 | reduction |  |  |  |  |  | 
AQGV [synthetic tetrapeptide, alanine replacement variant of LQGV from loop two of the β-subunit of hCG] | significant reduction | none | significant reduction | did not affect | significant reduction | No significant difference | 47.3±12.4 | 18.1±9.0 | reduction | decreased | 4,432±0.736 10^9/1 | significantly lower | 29.9 | 78.4±28.3 | 
LQGV [synthetic tetrapeptide, part of the primary structure of loop two of the β-subunit of hCG] | significant reduction | none | significant reduction | did not affect | significant reduction | No significant difference | 38.2±7.4 | 21.2±8.6 | significant reduction | decreased | 3,846±0.636 10^9/1 | significantly lower | 39.2 |  | 
Alanine-glutamine dipeptide [AG] |  |  |  |  |  |  |  |  |  |  |  |  |  |  | inhibited
